For data set [1], the system named is Neutrophil. Description: Anti-inflammatory activity in fMLP/CB-stimulated human neutrophils assessed as reduction in superoxide generation at 30 ug/mL preincubated for 5 mins followed by cytochalasin B addition for 3 mins and subsequent fMLP-stimulation for 10 mins by ferricytochrome c reduction based spectrophotometric assay. The data set is classed as functional, cell-based.

Data set [2] concerns HepG2. Description: Antiproliferative activity against human HepG2 cells at 20 ug/mL after 72 hrs by MTT assay. The data set is classed as functional, cell-based.
The test system of data set [3] is Neutrophil. The data set is described as follows: Anti-inflammatory activity in fMLP/CB-stimulated human neutrophils assessed as reduction in elastase release at 30 ug/mL using MeO-Suc-Ala-Ala-Pro-Val-p-nitroanilide as substrate preincubated for 5 mins followed by cytochalasin B addition and subsequent fMLP-stimulation for 10 mins by spectrophotometric assay. The data set is classed as functional, cell-based.

Data set [4] has as its system A549. The data set is described as follows: Antiproliferative activity against human A549 cells at 20 ug/mL after 72 hrs by MTT assay. The data set is classed as functional, cell-based. On the technique in general: Formazan colour is commonly taken as a measure of viable cells.
In data set [5] the test system is Staphylococcus aureus. Description: Antimicrobial activity against Methicillin-resistant Staphylococcus aureus ATCC 33592 at 2 mg/ml after 24 hrs by agar well-diffusion method. The data set is classed as functional. On the technique in general: A growth-free zone around the sample is the usual read-out of agar diffusion tests.
The test system of data set [6] is EPC. Description: (§1) Antiangiogenic activity against human CD34-positive EPC assessed as inhibition of tube formation after 24 hrs by matrigel based inverted phase contrast microscopic analysis. The format is functional, cell-based.
Data set [7] can be described thus: as §1. The data set is classed as functional, cell-based.
Data set [8] is described as follows: Cytotoxicity against CD34-positive human EPC at 25 to 50 ug/mL after 24 hrs by LDH release assay. The format is cell-based. (LDH leaks from cells whose membrane has failed.)
For data set [9], the system named is MDA-MB-231. Description: Antiproliferative activity against human MDA-MB-231 cells at 20 ug/mL after 72 hrs by MTT assay. The data set is classed as functional, cell-based.

We go through 1 compound from ChEMBL document CHEMBL4014292, “Novel 11-norbetaenone isolated from an entomopathogenic fungus Lecanicillium antillanum” (Bioorg Med Chem Lett, 2017).

As usually defined, the IC50 is the concentration that inhibits the measured activity by half.

In brackets after ≈: the same amount, converted by molar mass. Activity calls are given as the source filed them. The calls are words filed in the database; no cut-off is given here.

For `CC[C@@H](C)[C@H]1C=C[C@H]2[C@H](O)[C@@H](CO)C[C@@H](C)[C@@H]2[C@@]1(C)C(=O)CCO`, the outcome in data set [1], in [2], in data set [3], in [4], in data set [5] and in data set [9] was inactive. Also, in [6], the inhibition result was “Dose-dependent effect”. Besides, the IC50 in [7] came out at 34.1 µg/mL (≈ 101 µM). Besides, the Activity entry in [8] is listed as “Non-Toxic”.
